The text below walks through data of patent US20120129843A1, “PYRIDYL-THIAZOLYL INHIBITORS OF PRO-MATRIX METALLOPROTEINASE ACTIVATION” (priority 2010, published 2012).

SMILES strings stand for the structures. Structures can show the parent of a compound that is named as a salt. Some results are limits rather than exact numbers.

Assay [1] addresses T1, proMMP9(20-445;ΔFnII) (SEQ ID NO:6) (Homo sapiens, UniProt P14780, DEL216-390).
T1 construct: start methionine (N); made in house; host or cells: E. coli BL21(DE3) RIL
T1 sequence (P14780 with tags, fused parts or gaps DEL216-390): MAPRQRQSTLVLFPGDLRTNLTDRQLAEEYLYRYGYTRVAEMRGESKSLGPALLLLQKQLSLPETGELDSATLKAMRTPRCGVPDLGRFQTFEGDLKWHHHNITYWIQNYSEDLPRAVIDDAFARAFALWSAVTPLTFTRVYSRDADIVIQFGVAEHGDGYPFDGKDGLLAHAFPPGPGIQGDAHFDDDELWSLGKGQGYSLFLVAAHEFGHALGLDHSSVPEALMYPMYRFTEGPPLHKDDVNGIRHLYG
Briefly: ThermoFluor binding assay with proMMP9(20-445;ΔFnII). As for the experimental part:
(§1) The ThermoFluor® (TF) assay is a 384-well plate-based binding assay that measures thermal stability of proteins (Biomol Screen 2001, 6, 429-40; Biochemistry 2005, 44, 5258-66). The experiments were carried out using instruments available from Johnson & Johnson Pharmaceutical Research & Development, LLC. TF dye used in all experiments was […] (1,8-ANS) (Invitrogen: A-47).
(§2) Compounds were arranged in a pre-dispensed plate (Greiner Bio-one: 781280), wherein compounds were serially diluted in 100% DMSO across 11 columns within a series. Columns 12 and 24 were used as DMSO reference and contained no compound. For multiple compound concentration-response experiments, the compound aliquots ([…]) were robotically predispensed directly into black 384-well polypropylene PCR microplates (Abgene: TF-0384/k) using a Cartesian Hummingbird liquid handler (DigiLab, Holliston, Mass.). Following compound dispense, protein and dye solutions were added to achieve the final assay volume of 3 μL. The assay solutions were overlayed with 1 μL of silicone oil (Fluka, type DC 200: 85411) to prevent evaporation.
(§3) Assay plates were robotically loaded onto a thermostatically controlled PCR-type thermal block and then heated from 40 to 90° C. at a ramp-rate of 1° C./min for all experiments. Fluorescence was measured by continuous illumination with UV light (Hamamatsu LC6) supplied via fiber optics and filtered through a band-pass filter (380-400 nm; >60D cutoff). Fluorescence emission of the entire 384-well plate was detected by measuring light intensity using a CCD camera (Sensys, Roper Scientific) filtered to detect 500±25 nm, resulting in simultaneous and independent readings of all 384 wells. A single image with 20-sec exposure time was collected at each temperature, and the sum of the pixel intensity in a given area of the assay plate was recorded vs temperature and fit to standard equations to yield the Tm (J Biomol Screen 2001, 6, 429-40).
(§4) Thermodynamic parameters necessary for fitting compound binding for each proMMP were estimated by differential scanning calorimetry (DSC) and from ThermoFluor® data. The heat capacity of unfolding for each protein was estimated from the molecular weight and from ThermoFluor® dosing data.
ThermoFluor® with proMMP9(20-445;ΔFnII) (SEQ ID NO:6)
The protein sample preparations included a desalting buffer exchange step via a PD-10 gravity column (GE Healthcare). The desalting buffer exchange was performed prior to diluting the protein to the final assay concentration of 2.8 μM proMMP9(20-445;ΔFnII) (SEQ ID NO:6). The concentration of proMMP9(20-445;ΔFnII) (SEQ ID NO:6) was determined spectrophotometrically based on a calculated extinction coefficient of ε280=39880 M^−1cm^−1, a calculated molecular weight of 28.2 kDa, and calculated pI of 5.5. ThermoFluor® reference conditions were define as follows: 80 μg/mL (2.8 μM) proMMP9(20-445;ΔFnII) (SEQ ID NO:6), 50 μM 1,8-ANS, pH 7.0 Buffer (50 mM HEPES pH 7.0, 100 mM NaCl, 0.001% Tween-20, 2.5 mM MgCl2, 300 μM CaCl2). The thermodynamic parameters for proMMP9(20-445;ΔFnII) (SEQ ID NO:6) are as follows: Tm (° C.)=72 (+/−0.1), ΔUH(Tm) (cal mol^−1)=160000(+/−5000), ΔUS(Tm) (cal mol^−1 K^−1)=434, ΔUCp (cal mol^−1 K^−1)=2400.
A general note: In DSF a fluorescence change marks the thermal transition of the protein.

For assay [2], the target named is T2, proMMP9(67-444;ΔFnII) (SEQ ID NO:5) (Homo sapiens, UniProt P14780, DEL216-390).
T2 construct: start methionine (N); made in house; host or cells: E. coli BL21(DE3) RIL
T2 sequence (P14780 with tags, fused parts or gaps DEL216-390): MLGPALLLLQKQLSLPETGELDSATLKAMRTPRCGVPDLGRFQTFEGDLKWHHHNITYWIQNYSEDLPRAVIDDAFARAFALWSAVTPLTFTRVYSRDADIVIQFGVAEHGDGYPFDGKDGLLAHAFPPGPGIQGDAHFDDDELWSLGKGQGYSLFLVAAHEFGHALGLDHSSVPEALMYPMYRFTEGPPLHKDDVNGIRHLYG
Briefly: ThermoFluor binding assay with proMMP9(67-444;ΔFnII). As for the experimental part: as §1, §2, §3, §4
ThermoFluor® with proMMP9(67-444;ΔFnII) (SEQ ID NO:5)
The protein sample preparations had to include a desalting buffer exchange step via a PD-10 gravity column (GE Healthcare). The desalting buffer exchange was performed prior to diluting the protein to the final assay concentration of 3.5 μM proMMP9(67-444;ΔFnII) (SEQ ID NO:5). The concentration of proMMP9(67-444;ΔFnII) (SEQ ID NO:5) was determined spectrophotometrically based on a calculated extinction coefficient of ε280=33900 M^−1cm^−1, a calculated molecular weight of 22.6 kDa, and calculated pI of 5.20. ThermoFluor® reference conditions were defined as follows: 80 μg/mL (3.5 μM) proMMP9(67-444;ΔFnII) (SEQ ID NO:5), 50 μM 1,8-ANS, pH 7.0 Buffer (50 mM HEPES pH 7.0, 100 mM NaCl, 0.001% Tween-20, 2.5 mM MgCl2, 300 μM CaCl2). The thermodynamic parameters for proMMP9(67-444;ΔFnII) (SEQ ID NO:5) are as follows: Tm (° C.)=63 (+/−0.1), ΔUH(Tm) (cal mol^−1)=105000(+/−5000), ΔUS(Tm) (cal mol^−1 K^−1)=[…], ΔUCp (cal mol^−1 K^−1)=2000.

Assay [3] concerns the target T3, full-length proMMP9(1-707) (SEQ ID NO:1), activation by catalytic MMP3 (Homo sapiens, UniProt P14780, R574P).
T3 construct: made in house; host or cells: HEK293 (proMMP9, secreted); E. coli (MMP3)
Briefly: proMMP9/MMP3 P126 Activation Assay. Type of assay: biochemical. On the procedure:
proMMP9/MMP3 P126 Activation Assay
The reaction volume was 50 μL. […] Reactivity of residual MMP3 towards P-126 substrate was minimal under these conditions.

T3 sequence (P14780 20-707 R574P): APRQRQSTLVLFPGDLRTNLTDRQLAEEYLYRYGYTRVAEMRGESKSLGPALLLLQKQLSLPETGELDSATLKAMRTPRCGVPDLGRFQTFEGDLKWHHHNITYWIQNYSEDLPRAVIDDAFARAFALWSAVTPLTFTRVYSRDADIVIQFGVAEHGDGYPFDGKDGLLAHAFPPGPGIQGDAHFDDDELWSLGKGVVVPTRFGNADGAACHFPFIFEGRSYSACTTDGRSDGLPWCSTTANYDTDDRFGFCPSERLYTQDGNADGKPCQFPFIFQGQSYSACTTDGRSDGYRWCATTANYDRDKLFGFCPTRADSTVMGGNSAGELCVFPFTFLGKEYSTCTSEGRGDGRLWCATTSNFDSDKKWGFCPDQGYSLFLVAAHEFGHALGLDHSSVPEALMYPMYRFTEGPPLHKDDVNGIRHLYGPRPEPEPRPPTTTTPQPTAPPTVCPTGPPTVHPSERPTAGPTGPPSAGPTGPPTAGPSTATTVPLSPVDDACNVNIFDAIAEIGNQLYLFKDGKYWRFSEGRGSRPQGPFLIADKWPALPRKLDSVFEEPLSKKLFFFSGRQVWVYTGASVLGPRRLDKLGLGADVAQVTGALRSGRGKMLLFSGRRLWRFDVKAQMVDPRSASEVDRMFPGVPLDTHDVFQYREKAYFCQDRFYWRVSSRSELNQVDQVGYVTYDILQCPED

A word on the Kd: it is the constant that tells how readily two partners part at equilibrium. A word on the IC50: it is the concentration needed to halve the response being measured. Low values mean greater potency, high ones weaker potency. For the compound `CC(C)Oc1ccc(S(N)(=O)=O)cc1Nc1nc(-c2ccc(CO)nc2)cs1` [Example 56, 3-[4-(6-Hydroxymethyl-pyridin-3-yl)-thiazol-2-ylamino]-4-isopropoxy-benzenesulfonamide], the Kd in assay [1] is 640 nM; in assay [2], 1500 nM. In addition, in assay [3], half-maximal inhibition (IC50) required 390 nM.
In the same order, the values of `CC(C)Oc1ccc(S(N)(=O)=O)cc1Nc1nc(-c2ccc(N(C)CCN(C)C)nc2)cs1` [Example 43, 3-(4-{6-[(2-Dimethylamino-ethyl)-methyl-amino]-pyridin-3-yl}-thiazol-2-ylamino)-4-isopropoxy-benzenesulfonamide.TFA] are 120 nM, 1700 nM and 200 nM.
On to `CN1CCN(c2ccc(-c3csc(Nc4cc(C(N)=O)ccc4OC(F)(F)F)n3)cn2)CC1` [Example 31, 3-{4-[6-(4-Methyl-piperazin-1-yl)-pyridin-3-yl]-thiazol-2-ylamino}-4-trifluoromethoxy-benzamide], for which the Kd came to 110 nM in assay [1] and 610 nM in assay [2]. Further, the IC50 in assay [3] is 640 nM.
In the same order, the values of `CC(C)Oc1ccc(S(N)(=O)=O)cc1Nc1nc(-c2ccc(C(=O)NC3CC(C)(C)N(C)C(C)(C)C3)nc2)cs1` [Example 84, 5-(2-((2-Isopropoxy-5-sulfamoylphenyl)amino)thiazol-4-yl)-N-(1,2,2,6,6-pentamethylpiperidin-4-yl)picolinamide.TFA] are 250 nM, 200 nM and 260 nM.
Regarding `CCS(=O)(=O)c1ccc(OC)c(Nc2nc(-c3cccnc3)cs2)c1` [Example 11, (5-Ethanesulfonyl-2-methoxy-phenyl)-(4-pyridin-3-yl-thiazol-2-yl)-amine.TFA], the Kd in assay [1] stood at 5900 nM; in assay [2] it was 16000 nM.
In turn, `COC(=O)c1ccc(-c2csc(Nc3cc(S(N)(=O)=O)ccc3OC(C)C)n2)cn1` [Intermediate 12, 5-[2-(2-Isopropoxy-5-sulfamoyl-phenylamino)-thiazol-4-yl]-pyridine-2-carboxylic acid methyl ester.TsOH] returned a Kd in assay [2] of 410 nM. The IC50 in assay [3] was more than 20000 nM.
In assay [1], `CC(C)Oc1ccc(S(N)(=O)=O)cc1Nc1nc(-c2ccc(N3CCN(S(C)(=O)=O)CC3)nc2)cs1` [Example 83, 4-Isopropoxy-3-((4-(6-(4-(methylsulfonyl)piperazin-1-yl)pyridin-3-yl)thiazol-2-yl)amino)benzenesulfonamide.TFA] had a Kd of 310 nM. In addition, in assay [3], the IC50 came to 140 nM.
Taken in the same sequence, the figures for `CCN1CCC(NC(=O)c2ccc(-c3csc(Nc4cc(S(N)(=O)=O)ccc4OC(C)C)n3)cn2)CC1` [Example 57, 5-[2-(2-Isopropoxy-5-sulfamoyl-phenylamino)-thiazol-4-yl]-pyridine-2-carboxylic acid (1-ethyl-piperidin-4-yl)-amide.TFA] were 110 nM and 240 nM.
For `CC(C)Oc1ccc(S(N)(=O)=O)cc1Nc1nc(-c2ccc(N3CCC(O)CC3)nc2)cs1` [Example 70, 3-((4-(6-(4-Hydroxypiperidin-1-yl)pyridin-3-yl)thiazol-2-yl)amino)-4-isopropoxybenzenesulfonamide.TFA], the affinity in assay [1], expressed as Kd, was 250 nM. Moreover, the 50% inhibitory concentration (IC50) in assay [3] stood at 340 nM.
In assay [1], `COCCCN(C)c1ccc(-c2csc(Nc3cc(S(N)(=O)=O)ccc3OC(C)C)n2)cn1` [Example 92, 4-Isopropoxy-3-((4-(6-((3-methoxypropyl)(methyl)amino)pyridin-3-yl)thiazol-2-yl)amino)benzenesulfonamide.TFA] showed a Kd of 450 nM. Further, in assay [3], the IC50 amounted to 230 nM.
Taken in the same sequence, the figures for `CC(C)Oc1ccc(S(N)(=O)=O)cc1Nc1nc(-c2ccc(N3CCCCC3)nc2)cs1` [Example 76, 4-Isopropoxy-3-((4-(6-(piperidin-1-yl)pyridin-3-yl)thiazol-2-yl)amino)benzenesulfonamide.TFA] were 240 nM and more than 20000 nM.
Taken in the same sequence, the figures for `CC(C)Oc1ccc(S(N)(=O)=O)cc1Nc1nc(-c2ccc(C(=O)NC3CCOCC3)nc2)cs1` [Example 96, 5-(2-((2-Isopropoxy-5-sulfamoylphenyl)amino)thiazol-4-yl)-N-(tetrahydro-2H-pyran-4-yl)picolinamide.TFA] were 1900 nM and 590 nM.
In the same order, the values of `CC(C)Oc1ccc(S(N)(=O)=O)cc1Nc1nc(-c2ccc(N3CCNC(C(F)(F)F)C3)nc2)cs1` (stereo not drawn) [Example 80, 4-Isopropoxy-3-((4-(6-(3-(trifluoromethyl)piperazin-1-yl)pyridin-3-yl)thiazol-2-yl)amino)benzenesulfonamide.TFA] are 150 nM and 360 nM.
For `CC(C)Oc1ccc(S(N)(=O)=O)cc1Nc1nc(-c2ccc(N3CCNC(C(N)=O)C3)nc2)cs1` (stereo not drawn) [Example 73, 4-(5-(2-((2-Isopropoxy-5-sulfamoylphenyl)amino)thiazol-4-yl)pyridin-2-yl)piperazine-2-carboxamide.TFA], the Kd in assay [1] was determined as 120 nM. In assay [3], this compound showed an IC50 of 210 nM.
On to `COCCN(C)c1ccc(-c2csc(Nc3cc(S(N)(=O)=O)ccc3OC(C)C)n2)cn1` [Example 74, 4-Isopropoxy-3-((4-(6-((2-methoxyethyl)(methyl)amino)pyridin-3-yl)thiazol-2-yl)amino)benzenesulfonamide.TFA], for which, in assay [1], the dissociation constant Kd was determined as 170 nM. In assay [3], this compound showed an IC50 of 160 nM.
In the same order, the values of `CC(C)Oc1ccc(S(N)(=O)=O)cc1Nc1nc(-c2ccc(N3CCN(CCC(F)(F)F)CC3)nc2)cs1` [Example 66, 4-Isopropoxy-3-((4-(6-(4-(3,3,3-trifluoropropyl)piperazin-1-yl)pyridin-3-yl)thiazol-2-yl)amino)benzenesulfonamide.TFA] are 310 nM and more than 20000 nM.
